Data reported in the NIST ThermoML archive (doi:10.1007/s10765-006-0056-z).
Numbers after ± are expanded uncertainties.

Assay: molar heat capacity at constant volume; xn = mol fraction of the nth substance listed
Conditions: x1 = 0.095

## CCCCCCCCCC [decane] + O=C=O
339.76 K, Fluid (supercritical or subcritical phases), Mass density=658.8 kg/m3, Isochoric Heat Capacity Apparatus
  molar heat capacity at constant volume: 341.25 ± 6.8 J/K/mol
339.76 K, Liquid, iso
  molar heat capacity at constant volume: 405.37 ± 8.1 J/K/mol
339.81 K, Fluid (supercritical or subcritical phases), Mass density=658.8 kg/m3, Isochoric Heat Capacity Apparatus
  molar heat capacity at constant volume: 339.06 ± 6.8 J/K/mol
340.21 K, Fluid (supercritical or subcritical phases), Mass density=658.8 kg/m3, Isochoric Heat Capacity Apparatus
  molar heat capacity at constant volume: 339.7 ± 6.8 J/K/mol
340.44 K, Fluid (supercritical or subcritical phases), Mass density=658.8 kg/m3, Isochoric Heat Capacity Apparatus
  molar heat capacity at constant volume: 339.06 ± 6.8 J/K/mol
341.36 K, Fluid (supercritical or subcritical phases), Mass density=658.8 kg/m3, Isochoric Heat Capacity Apparatus
  molar heat capacity at constant volume: 337.04 ± 6.7 J/K/mol
342.32 K, Fluid (supercritical or subcritical phases), Mass density=658.8 kg/m3, Isochoric Heat Capacity Apparatus
  molar heat capacity at constant volume: 337.68 ± 6.8 J/K/mol
348.73 K, Fluid (supercritical or subcritical phases), Mass density=658.8 kg/m3, Isochoric Heat Capacity Apparatus
  molar heat capacity at constant volume: 325.41 ± 6.5 J/K/mol
352.09 K, Fluid (supercritical or subcritical phases), Mass density=622.7 kg/m3, Isochoric Heat Capacity Apparatus
  molar heat capacity at constant volume: 341.73 ± 6.8 J/K/mol
352.09 K, Liquid, iso
  molar heat capacity at constant volume: 393.1 ± 7.8 J/K/mol
352.5 K, Fluid (supercritical or subcritical phases), Mass density=622.7 kg/m3, Isochoric Heat Capacity Apparatus
  molar heat capacity at constant volume: 340.82 ± 6.8 J/K/mol
352.9 K, Fluid (supercritical or subcritical phases), Mass density=622.7 kg/m3, Isochoric Heat Capacity Apparatus
  molar heat capacity at constant volume: 339.06 ± 6.8 J/K/mol
354.63 K, Fluid (supercritical or subcritical phases), Mass density=622.7 kg/m3, Isochoric Heat Capacity Apparatus
  molar heat capacity at constant volume: 337.04 ± 6.7 J/K/mol
362.18 K, Fluid (supercritical or subcritical phases), Mass density=658.8 kg/m3, Isochoric Heat Capacity Apparatus
  molar heat capacity at constant volume: 313.14 ± 6.2 J/K/mol
364 K, Fluid (supercritical or subcritical phases), Mass density=622.7 kg/m3, Isochoric Heat Capacity Apparatus
  molar heat capacity at constant volume: 323.65 ± 6.5 J/K/mol
368.53 K, Fluid (supercritical or subcritical phases), Mass density=574.1 kg/m3, Isochoric Heat Capacity Apparatus
  molar heat capacity at constant volume: 365.42 ± 7.3 J/K/mol
368.53 K, Liquid, iso
  molar heat capacity at constant volume: 393.1 ± 7.8 J/K/mol
368.83 K, Fluid (supercritical or subcritical phases), Mass density=574.1 kg/m3, Isochoric Heat Capacity Apparatus
  molar heat capacity at constant volume: 364.08 ± 7.3 J/K/mol
369.77 K, Fluid (supercritical or subcritical phases), Mass density=574.1 kg/m3, Isochoric Heat Capacity Apparatus
  molar heat capacity at constant volume: 359.39 ± 7.2 J/K/mol
371.23 K, Fluid (supercritical or subcritical phases), Mass density=658.8 kg/m3, Isochoric Heat Capacity Apparatus
  molar heat capacity at constant volume: 303.75 ± 6.1 J/K/mol
380.81 K, Fluid (supercritical or subcritical phases), Mass density=622.7 kg/m3, Isochoric Heat Capacity Apparatus
  molar heat capacity at constant volume: 305.78 ± 6.1 J/K/mol
383.81 K, Fluid (supercritical or subcritical phases), Mass density=534.8 kg/m3, Isochoric Heat Capacity Apparatus
  molar heat capacity at constant volume: 350.91 ± 7 J/K/mol
384.11 K, Fluid (supercritical or subcritical phases), Mass density=534.8 kg/m3, Isochoric Heat Capacity Apparatus
  molar heat capacity at constant volume: 347.55 ± 6.9 J/K/mol
385.02 K, Fluid (supercritical or subcritical phases), Mass density=574.1 kg/m3, Isochoric Heat Capacity Apparatus
  molar heat capacity at constant volume: 318.95 ± 6.4 J/K/mol
385.79 K, Fluid (supercritical or subcritical phases), Mass density=534.8 kg/m3, Isochoric Heat Capacity Apparatus
  molar heat capacity at constant volume: 348.67 ± 7 J/K/mol
387.65 K, Fluid (supercritical or subcritical phases), Mass density=534.8 kg/m3, Isochoric Heat Capacity Apparatus
  molar heat capacity at constant volume: 339.49 ± 6.8 J/K/mol
393.22 K, Fluid (supercritical or subcritical phases), Mass density=509.4 kg/m3, Isochoric Heat Capacity Apparatus
  molar heat capacity at constant volume: 349.31 ± 7 J/K/mol
393.66 K, Fluid (supercritical or subcritical phases), Mass density=622.7 kg/m3, Isochoric Heat Capacity Apparatus
  molar heat capacity at constant volume: 307.11 ± 6.1 J/K/mol
394.42 K, Fluid (supercritical or subcritical phases), Mass density=509.4 kg/m3, Isochoric Heat Capacity Apparatus
  molar heat capacity at constant volume: 339.06 ± 6.8 J/K/mol
395.94 K, Fluid (supercritical or subcritical phases), Mass density=509.4 kg/m3, Isochoric Heat Capacity Apparatus
  molar heat capacity at constant volume: 340.82 ± 6.8 J/K/mol
397.67 K, Fluid (supercritical or subcritical phases), Mass density=498 kg/m3, Isochoric Heat Capacity Apparatus
  molar heat capacity at constant volume: 351.12 ± 7 J/K/mol
397.78 K, Fluid (supercritical or subcritical phases), Mass density=574.1 kg/m3, Isochoric Heat Capacity Apparatus
  molar heat capacity at constant volume: 312.23 ± 6.2 J/K/mol
398.32 K, Fluid (supercritical or subcritical phases), Mass density=498 kg/m3, Isochoric Heat Capacity Apparatus
  molar heat capacity at constant volume: 353.09 ± 7 J/K/mol
399.4 K, Fluid (supercritical or subcritical phases), Mass density=498 kg/m3, Isochoric Heat Capacity Apparatus
  molar heat capacity at constant volume: 343.97 ± 6.9 J/K/mol
401.33 K, Fluid (supercritical or subcritical phases), Mass density=534.8 kg/m3, Isochoric Heat Capacity Apparatus
  molar heat capacity at constant volume: 323.65 ± 6.5 J/K/mol
403.37 K, Fluid (supercritical or subcritical phases), Mass density=574.1 kg/m3, Isochoric Heat Capacity Apparatus
  molar heat capacity at constant volume: 314.26 ± 6.3 J/K/mol
404.76 K, Fluid (supercritical or subcritical phases), Mass density=509.4 kg/m3, Isochoric Heat Capacity Apparatus
  molar heat capacity at constant volume: 325.19 ± 6.5 J/K/mol
404.98 K, Fluid (supercritical or subcritical phases), Mass density=477.6 kg/m3, Isochoric Heat Capacity Apparatus
  molar heat capacity at constant volume: 347.33 ± 6.9 J/K/mol
405.41 K, Fluid (supercritical or subcritical phases), Mass density=477.6 kg/m3, Isochoric Heat Capacity Apparatus
  molar heat capacity at constant volume: 344.18 ± 6.9 J/K/mol
406.9 K, Fluid (supercritical or subcritical phases), Mass density=534.8 kg/m3, Isochoric Heat Capacity Apparatus
  molar heat capacity at constant volume: 319.59 ± 6.4 J/K/mol
407.33 K, Fluid (supercritical or subcritical phases), Mass density=477.6 kg/m3, Isochoric Heat Capacity Apparatus
  molar heat capacity at constant volume: 339.28 ± 6.8 J/K/mol
410.31 K, Fluid (supercritical or subcritical phases), Mass density=509.4 kg/m3, Isochoric Heat Capacity Apparatus
  molar heat capacity at constant volume: 327.43 ± 6.6 J/K/mol
410.94 K, Fluid (supercritical or subcritical phases), Mass density=498 kg/m3, Isochoric Heat Capacity Apparatus
  molar heat capacity at constant volume: 327.01 ± 6.6 J/K/mol
411.47 K, Fluid (supercritical or subcritical phases), Mass density=574.1 kg/m3, Isochoric Heat Capacity Apparatus
  molar heat capacity at constant volume: 311.32 ± 6.2 J/K/mol
416.01 K, Fluid (supercritical or subcritical phases), Mass density=477.6 kg/m3, Isochoric Heat Capacity Apparatus
  molar heat capacity at constant volume: 330.31 ± 6.6 J/K/mol
416.64 K, Fluid (supercritical or subcritical phases), Mass density=509.4 kg/m3, Isochoric Heat Capacity Apparatus
  molar heat capacity at constant volume: 321.62 ± 6.5 J/K/mol
422.51 K, Fluid (supercritical or subcritical phases), Mass density=498 kg/m3, Isochoric Heat Capacity Apparatus
  molar heat capacity at constant volume: 321.62 ± 6.5 J/K/mol
423.55 K, Fluid (supercritical or subcritical phases), Mass density=509.4 kg/m3, Isochoric Heat Capacity Apparatus
  molar heat capacity at constant volume: 319.59 ± 6.4 J/K/mol
428.94 K, Fluid (supercritical or subcritical phases), Mass density=477.6 kg/m3, Isochoric Heat Capacity Apparatus
  molar heat capacity at constant volume: 321.41 ± 6.5 J/K/mol
432.24 K, Fluid (supercritical or subcritical phases), Mass density=509.4 kg/m3, Isochoric Heat Capacity Apparatus
  molar heat capacity at constant volume: 320.07 ± 6.4 J/K/mol
434.61 K, Fluid (supercritical or subcritical phases), Mass density=398.3 kg/m3, Isochoric Heat Capacity Apparatus
  molar heat capacity at constant volume: 344.61 ± 6.9 J/K/mol
434.91 K, Fluid (supercritical or subcritical phases), Mass density=398.3 kg/m3, Isochoric Heat Capacity Apparatus
  molar heat capacity at constant volume: 342.64 ± 6.8 J/K/mol
436.96 K, Fluid (supercritical or subcritical phases), Mass density=398.3 kg/m3, Isochoric Heat Capacity Apparatus
  molar heat capacity at constant volume: 343.06 ± 6.9 J/K/mol
437.68 K, Fluid (supercritical or subcritical phases), Mass density=498 kg/m3, Isochoric Heat Capacity Apparatus
  molar heat capacity at constant volume: 321.19 ± 6.4 J/K/mol
438.19 K, Fluid (supercritical or subcritical phases), Mass density=509.4 kg/m3, Isochoric Heat Capacity Apparatus
  molar heat capacity at constant volume: 318.05 ± 6.3 J/K/mol
440.43 K, Fluid (supercritical or subcritical phases), Mass density=534.8 kg/m3, Isochoric Heat Capacity Apparatus
  molar heat capacity at constant volume: 316.28 ± 6.3 J/K/mol
442.03 K, Fluid (supercritical or subcritical phases), Mass density=534.8 kg/m3, Isochoric Heat Capacity Apparatus
  molar heat capacity at constant volume: 316.5 ± 6.3 J/K/mol
442.05 K, Fluid (supercritical or subcritical phases), Mass density=498 kg/m3, Isochoric Heat Capacity Apparatus
  molar heat capacity at constant volume: 321.19 ± 6.4 J/K/mol
442.66 K, Fluid (supercritical or subcritical phases), Mass density=477.6 kg/m3, Isochoric Heat Capacity Apparatus
  molar heat capacity at constant volume: 322.31 ± 6.5 J/K/mol
442.88 K, Fluid (supercritical or subcritical phases), Mass density=498 kg/m3, Isochoric Heat Capacity Apparatus
  molar heat capacity at constant volume: 321.19 ± 6.4 J/K/mol
